≈ marks a conversion by molar mass, not a printed value. Calls of active or inactive are those of the source. The rule behind the calls is not given here.
Legend:
[1] = target: T1, Sphingosine kinase 2 (Homo sapiens, UniProt Q9NRA0); test: Inhibition of SphK2 (unknown origin) using sphingosine as substrate incubated for 30 mins in presence of ATP by ADP-Glo assay
T1 sequence (Q9NRA0 whole entry): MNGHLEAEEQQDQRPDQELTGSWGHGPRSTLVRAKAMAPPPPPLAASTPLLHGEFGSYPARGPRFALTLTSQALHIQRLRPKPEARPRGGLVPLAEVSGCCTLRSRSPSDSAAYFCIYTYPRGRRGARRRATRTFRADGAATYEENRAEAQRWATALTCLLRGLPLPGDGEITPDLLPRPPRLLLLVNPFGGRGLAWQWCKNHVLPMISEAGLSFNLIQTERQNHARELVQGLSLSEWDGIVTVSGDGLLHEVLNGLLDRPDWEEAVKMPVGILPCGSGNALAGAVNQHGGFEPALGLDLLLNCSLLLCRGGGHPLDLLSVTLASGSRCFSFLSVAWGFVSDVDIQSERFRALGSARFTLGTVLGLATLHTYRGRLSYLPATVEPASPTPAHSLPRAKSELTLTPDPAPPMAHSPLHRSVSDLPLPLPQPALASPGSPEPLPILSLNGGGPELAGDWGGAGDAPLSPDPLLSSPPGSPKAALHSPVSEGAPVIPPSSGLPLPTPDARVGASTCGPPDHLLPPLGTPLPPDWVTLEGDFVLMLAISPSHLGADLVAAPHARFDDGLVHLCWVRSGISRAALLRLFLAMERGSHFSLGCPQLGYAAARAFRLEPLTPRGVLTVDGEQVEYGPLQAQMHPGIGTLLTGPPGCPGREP

[2] = system: MC-38; test: cells; details: Mus musculus, MC-38, 48 h
[3] = Cytotoxicity against mouse NIH3T3 cells assessed as reduction in cell proliferation incubated for 48 hrs by CCK-8 assay; type: toxicity, cell-based
[4] = system: HepG2; test: cells; details: Homo sapiens, HepG2, 48 h
[5] = system: Hepa 1-6; test: cells; details: Mus musculus, Hepa1-6, 48 h
[6] = system: MCF7; test: cells; details: Homo sapiens, MCF7, 48 h
[7] = Aqueous solubility of compound in phosphate buffer at pH 9.0 by HPLC analysis; type: physicochemical
[8] = Aqueous solubility of compound in phosphate buffer at pH 7.4 by HPLC analysis; type: physicochemical
[9] = Aqueous solubility of compound in phosphate buffer at pH 2.0 by HPLC analysis; type: physicochemical
[10] = target: Sphingosine kinase 1 (Homo sapiens, UniProt Q9NYA1); test: Inhibition of SphK1 (unknown origin)
[11] = target: T1, Sphingosine kinase 2; test: Inhibition of SphK2 (unknown origin)
[12] = system: HepG2; test: Downregulation of SIP level in human HepG2 cells incubated for 48 hrs by SIP competitive ELISA method; type: functional, cell-based; details: dose 0-60 µM
[13] = system: HepG2; test: Upregulation od SPH level in human HepG2 cell incubated for 48 hrs by SPH competitive ELISA method; type: functional, cell-based; details: dose 0-60 µM
[14] = system: HepG2; test: Induction of apoptosis in human HepG2 cells assessed as early apoptotic cells at 50 uM incubated for 48 hrs by Annexin V/FITC-PI staining based flow cytometry (reference value: 1.98%); type: functional
[15] = system: HepG2; test: Induction of apoptosis in human HepG2 cells assessed as late apoptotic cells at 5 uM incubated for 48 hrs by Annexin V/FITC-PI staining based flow cytometry (reference value: 3.32%); type: functional
[16] = system: HepG2; test: Inhibition of cell migration in human HepG2 cells assessed as scratch healing incubated for 24 to 48 hrs by wound healing assay; type: functional, cell-based; details: dose 10-30 µM, time lower 24.0 hrs, time upper […]
[17] = system: HepG2; test: Induction of apoptosis in human HepG2 cells assessed as necrotic cells at 5 uM incubated for 48 hrs by Annexin V/FITC-PI staining based flow cytometry (reference value: […]); type: functional
[18] = system: Mus musculus; test: In vivo inhibition SphK2 in female C57BL/6j mouse assessed as decrease in plasma SIP level at 10 to 30 mg/kg, ip measured after 4 hrs by SIP competitive ELISA method; type: functional, organism-based; details: dose 10-30 mg/kg
[19] = system: HepG2; test: Induction of apoptosis in human HepG2 cells assessed as necrotic cells at 20 uM incubated for 48 hrs by Annexin V/FITC-PI staining based flow cytometry (reference value: […]); type: functional
[20] = system: HepG2; test: Induction of apoptosis in human HepG2 cells assessed as early apoptotic cells at 20 uM incubated for 48 hrs by Annexin V/FITC-PI staining based flow cytometry (reference value: 1.98%); type: functional
[21] = system: HepG2; test: Induction of cell cycle arrest in human HepG2 cells assessed as accumulation of cell at G2 phase at 0 to 50 uM incubated for 48 hrs by PI staining based flow cytometric analysis; type: functional; details: dose 0-50 µM
[22] = system: HepG2; test: Induction of apoptosis in human HepG2 cells assessed as late apoptotic cells at 50 uM incubated for 48 hrs by Annexin V/FITC-PI staining based flow cytometry (reference value: 3.32%); type: functional
[23] = system: HepG2; test: Induction of apoptosis in human HepG2 cells assessed as necrotic cells at 50 uM incubated for 48 hrs by Annexin V/FITC-PI staining based flow cytometry (reference value: […]); type: functional
[24] = system: HepG2; test: Induction of apoptosis in human HepG2 cells assessed as late apoptotic cells at 20 uM incubated for 48 hrs by Annexin V/FITC-PI staining based flow cytometry (reference value: 3.32%); type: functional
[25] = system: HepG2; test: Induction of apoptosis in human HepG2 cells assessed as viable cells at 50 uM incubated for 48 hrs by Annexin V/FITC-PI staining based flow cytometry (reference value: 91.15%); type: functional; details: read-out: Activity
[26] = system: HepG2; test: Induction of apoptosis in human HepG2 cells assessed as viable cells at 5 uM incubated for 48 hrs by Annexin V/FITC-PI staining based flow cytometry (reference value: 91.15%); type: functional; details: read-out: Activity
[27] = system: HepG2; test: Induction of apoptosis in human HepG2 cells assessed as early apoptotic cells at 5 uM incubated for 48 hrs by Annexin V/FITC-PI staining based flow cytometry (reference value: 1.98%); type: functional
[28] = system: HepG2; test: Induction of apoptosis in human HepG2 cells assessed as viable cells at 20 uM incubated for 48 hrs by Annexin V/FITC-PI staining based flow cytometry (reference value: 91.15%); type: functional; details: read-out: Activity

Chain of Sphingosine kinase 1 (Q9NYA1 whole entry): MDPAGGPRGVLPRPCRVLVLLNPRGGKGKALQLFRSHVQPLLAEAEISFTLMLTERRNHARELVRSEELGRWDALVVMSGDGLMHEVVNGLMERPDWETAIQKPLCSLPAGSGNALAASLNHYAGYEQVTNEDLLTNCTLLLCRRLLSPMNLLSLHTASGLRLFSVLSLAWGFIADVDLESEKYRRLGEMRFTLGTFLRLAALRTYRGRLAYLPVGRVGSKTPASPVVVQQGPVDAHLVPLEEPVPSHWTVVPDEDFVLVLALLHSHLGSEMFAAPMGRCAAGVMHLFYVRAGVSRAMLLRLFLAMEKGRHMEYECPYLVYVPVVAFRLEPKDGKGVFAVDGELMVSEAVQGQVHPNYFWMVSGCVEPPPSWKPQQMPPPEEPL

Row | IC50 [2] [µM] | IC50 [4] [µM] | IC50 [5] [µM] | IC50 [6] [µM] | Compound | IC50 at 48 h [3] [µM] | also measured
1 | 34.6 | 25.6 | 41.9 | 33.5 | O=C(NCc1ccncc1)C12CC3CC(C1)CC(c1ccc(Cl)cc1)(C3)C2 [ABC-294640] | > 100 | IC50 [1]: 11.4 µM
2 | > 100 | 46.4 | 57.4 | > 100 | O=C(Cc1ccc(-c2cnc(OCc3ccc(Cl)cc3)cn2)cc1)N1CCC[C@H]1CO | > 100 | –
3 | 36.3 | 17.6 | 26.2 | 32.1 | O=C(Cc1ccc(-c2cnc(OCc3ccc(C(F)(F)F)cc3)cn2)cc1)N1CCC[C@H]1CO | > 100 | solubility [7]: 60.4 µM (≈ 28.5 µg/mL); Activity [12]: Dose-Dependent Effect; solubility [8]: 164 µM (≈ 77.5 µg/mL); Activity [13]: Dose-Dependent Effect; solubility [9]: 38.6 µM (≈ 18.2 µg/mL)
4 | > 100 | 67.9 | 37.5 | 32.7 | NC(=O)[C@@H]1CCCN1C(=O)Cc1ccc(-c2ccc(OCc3ccc(Cl)c(Cl)c3)nc2)cc1 | > 100 | –
5 | 20.9 | 25.4 | 46.1 | 14.7 | O=C(Cc1ccc(-c2ccc(OCc3ccc(Cl)c(Cl)c3)nc2)cc1)N1CCC[C@H]1CO | > 100 | Activity [14]: 11.1%; Activity [15]: 6.61%; Activity [16]: Dose-Dependent Effect; Activity [17]: 6.77%; solubility [7]: 46.9 µM (≈ 22.1 µg/mL); Activity [18]: Active; Activity [19]: 4.62%; Activity [20]: 1.46%; Activity [21]: Active; Activity [22]: 10.09%; Activity [12]: Dose-Dependent Effect; Activity [23]: 11.19%; Activity [24]: 11.01%; viability at 50 µM [25]: 67.6%; solubility [8]: 197 µM (≈ 92.6 µg/mL); viability at 5 µM [26]: 85.7%; Activity [13]: Dose-Dependent Effect; solubility [9]: 6.87 µM (≈ 3.24 µg/mL); Activity [27]: 0.93%; viability at 20 µM [28]: 82.9%

Second part, the compound before the results:

Row | Compound | IC50 [2] [µM] | IC50 [4] [µM] | IC50 [5] [µM] | IC50 [6] [µM] | IC50 at 48 h [3] [µM] | also measured
6 | CCCCCOc1ccc2cc(-c3noc([C@@H]4[C@@H](O)CCN4C(=N)N)n3)ccc2c1 | – | – | – | – | – | IC50 [1]: 1.5 µM
7 | NC(=O)[C@@H]1CCCN1C(=O)Cc1ccc(-c2ccc(OCc3ccc(Cl)cc3)nc2)cc1 | 40.5 | 34.4 | 27.2 | 25.4 | > 100 | –
8 | O=C(Cc1ccc(-c2ccc(OCc3ccc(Cl)c(Cl)c3)nc2)cc1)N1CCC(O)CC1 | 16.4 | > 100 | 59.2 | 36.3 | > 100 | solubility [7]: 59.6 µM (≈ 28.1 µg/mL); solubility [8]: 183 µM (≈ 86.5 µg/mL); solubility [9]: 11.6 µM (≈ 5.48 µg/mL)
9 | CCCCCCCCc1ccc(CC[C@](N)(CO)COC)cc1 | – | – | – | – | – | Ki [10]: 50 µM
10 | O=C(Cc1ccc(-c2ccc(OCc3ccc(Cl)cc3)nc2)cc1)N1CCC[C@H]1CO | 57.4 | 27.2 | 49.1 | 53.4 | > 100 | –
11 | NC(=O)[C@@H]1CCCN1C(=O)Cc1ccc(-c2ccc(OCc3ccccc3)nc2)cc1 | > 100 | > 100 | 66.3 | > 100 | > 100 | –
12 | CS(=O)(=O)c1ccc(-c2sc(NS(=O)(=O)c3ccc(Br)cc3)nc2-c2ccccc2)cc1 | – | – | – | – | – | IC50 [11]: > 10 µM

— ChEMBL document CHEMBL6127008, “Discovery and biological evaluation of biaryl acetamide derivatives as selective and in vivo active sphingosine kinase-2 inhibitors” (Eur J Med Chem, 2024)
